Measured values: US9695155B2, “Herbicidal substituted pyrimidinyloxy benzene compounds” (E. I. DU PONT DE NEMOURS AND COMPANY, priority 2013, dated 2017)

How the values were obtained:
galium = experiment: Test C preemergence; type: in vivo, Galium aparine; settings: for Galium plant response rating: preemergence; for Plant response rating, Galium: Preemergence, 31 g ai/ha, scale 0 to 100, 0 no effect, 100 complete control
How it was run: (§1)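 Rated visually on 0–100 (100 = complete control) after 13–15 days under glass. Treatments went onto freshly seeded loam/sand soil or onto emerged plants at the 1- to 4-leaf stage, using a surfactant-containing solvent formulation.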

sedge, umbrella = experiment: Test B flooded paddy test; type: in vivo, Cyperus difformis; settings: Flood, 250 g ai/ha; 0 to 100 scale where 0 is no effect and 100 is complete control
How it was run: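 Post-emergence paddy-water application at the 2-leaf stage, with 3 cm flood kept for the whole test. Response was judged visually relative to controls after 13 to 15 greenhouse days, 0 indicating no effect and 100 complete control.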

large (Lg) crabgrass = experiment: Test C postemergence; type: in vivo, Digitaria sanguinalis; settings: for Plant response rating, Crabgrass, Large: Postemergence
How it was run: as §1

velvetleaf = experiment: Test C postemergence; type: in vivo, Abutilon theophrasti; settings: for Plant response rating (0 to 100), Velvetleaf: postemergence; for Plant response rating, Velvetleaf: Postemergence, scale 0 to 100 (0 no effect, 100 complete control)
How it was run: as §1

morningglory = experiment: Test A preemergence; type: in vivo, Ipomoea spp.
How it was run: (§2)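 Injury scores run from 0, no effect, to 100, complete control, judged by eye against untreated plants roughly 10 days after treatment. Chemicals carried a surfactant in a non-phytotoxic solvent and went onto loam–sand soil preemergence or onto one- to two-leaf seedlings postemergence.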

wheat [1] = experiment: Test A postemergence; type: in vivo, Triticum aestivum
How it was run: as §2

pigweed [2] = experiment: Test A postemergence; type: in vivo, Amaranthus retroflexus
How it was run: as §2

johnsongrass = experiment: Test C postemergence; type: in vivo, Sorghum halepense; settings: for Plant response rating, Johnsongrass: Postemergence
How it was run: as §1

wheat [3] = experiment: Test A preemergence; type: in vivo, Triticum aestivum
How it was run: as §2

pigweed [4] = experiment: Test A preemergence; type: in vivo, Amaranthus retroflexus
How it was run: as §2

giant foxtail = experiment: Test C postemergence; type: in vivo, Setaria faberii; settings: for Plant response rating, Foxtail, Giant: Postemergence
How it was run: as §1

yellow nutsedge = experiment: Test C postemergence; type: in vivo, Cyperus esculentus; settings: for Plant response rating (0 to 100), Nutsedge, Yellow: postemergence; for Plant response rating, Nutsedge, Yellow: Postemergence, scale 0 to 100 (0 no effect, 100 complete control)
How it was run: as §1

Italian ryegrass = experiment: Test C preemergence; type: in vivo, Lolium multiflorum; settings: for Ryegrass, Italian plant response rating: preemergence; for Plant response rating, Ryegrass, Italian: Preemergence, 31 g ai/ha, scale 0 to 100, 0 no effect, 100 complete control
How it was run: as §1

soybean = experiment: Test C postemergence; type: in vivo, Glycine max; settings: for Plant response rating (0 to 100), Soybean: postemergence; for Plant response rating, Soybean: Postemergence, scale 0 to 100 (0 no effect, 100 complete control)
How it was run: as §1

oilseed rape = experiment: Test C postemergence; type: in vivo, Brassica napus; settings: for Plant response rating, Oilseed Rape: Postemergence, scale 0 to 100 (0 no effect, 100 complete control)
Excerpt: Seeds of plant species selected from blackgrass (Alopecurus myosuroides), Italian ryegrass (Lolium multiflorum), wheat, winter (winter wheat, Triticum aestivum), galium (catchweed bedstraw, Galium aparine), corn (Zea mays), large (Lg) crabgrass (Digitaria sanguinalis), giant foxtail (Setaria faberii), johnsongrass (Sorghum halepense), lambsquarters (Chenopodium album), morningglory (Ipomoea coccinea), yellow nutsedge (Cyperus esculentus), pigweed (Amaranthus retroflexus), ragweed (common ragweed, Ambrosia elatior), soybean (Glycine max), barnyardgrass (Echinochloa crus-galli), oilseed rape (Brassica napus), waterhemp (common waterhemp, Amaranthus rudis), kochia (Kochia scoparia), wild oat (Avena fatua), surinam grass (Brachiaria decumbens), foxtail, green (green foxtail, Setaria viridis), goosegrass (Eleusine indica), bromegrass, downy (downy bromegrass, Bromus tectorum), nightshade (eastern black nightshade, Solanum ptycanthum), cocklebur (common cocklebur, Xanthium strumarium), cupgrass, woolly (woolly cupgrass, Eriochloa villosa), bermudagrass (Cynodon dactylon), sunflower, (common oilseed sunflower, Helianthus annuus), Russian thistle (Salsola kali), and velvetleaf (Abutilon theophrasti) were planted into a blend of loam soil and sand and treated preemergence with test chemicals formulated in a non-phytotoxic solvent mixture which included a surfactant.
At the same time, plants selected from these crop and weed species and also barley, winter (winter barley, Hordeum vulgare), windgrass (Apera spica-venti), chickweed (common chickweed, Stellaria media), deadnettle (henbit deadnettle, Lamium amplexicaule), and canarygrass (littleseed canarygrass, Phalaris minor) were planted in pots containing Redi-Earth® planting medium (Scotts Company, 14111 Scottslawn Road, Marysville, Ohio 43041) comprising spaghnum peat moss, vermiculite, wetting agent and starter nutrients and treated with postemergence applications of test chemicals formulated in the same manner. Plants ranged in height from 2 to 18 cm (1- to 4-leaf stage) for postemergence treatments. Treated plants and controls were maintained in a greenhouse for 13 to 15 days, after which time all species were compared to controls and visually evaluated. Plant response ratings, summarized in Table C, are based on a scale of 0 to 100 where 0 is no effect and 100 is complete control. A dash (-) response means no test result.

[5] = 62 g ai/ha, scale 0 (no effect) to 100 (complete control)
[6] = 125 g ai/ha, scale 0 (no effect) to 100 (complete control)
[7] = 250 g ai/ha, scale 0 (no effect) to 100 (complete control)
[8] = 31 g ai/ha, scale 0 to 100 (0 no effect, 100 complete control), 13 to 15 days
[9] = 62 g ai/ha, scale 0 to 100 (0 no effect, 100 complete control)
[10] = 125 g ai/ha, 0 to 100 scale where 0 is no effect and 100 is complete control
[11] = 500 g ai/ha, 0 to 100 scale, 0 no effect, 100 complete control, approx. 10 days
[12] = 500 g ai/ha, 0 to 100 scale, 0 no effect, 100 complete control
[13] = 16 g ai/ha, scale 0 to 100 (0 no effect, 100 complete control)
[14] = 16 g ai/ha, postemergence, visual rating, scale 0 to 100 (0 no effect, 100 complete control), 13 to 15 days
[15] = 500 g ai/ha, 0 to 100 scale where 0 is no effect and 100 is complete control

Compound: FC(F)(F)c1cnn(-c2ccccc2Oc2ncc(Cl)cn2)c1 [Compound 16]
- Galium plant response rating (galium; [5]): 100
- Galium plant response rating (galium; [6]): 100
- Galium plant response rating (galium; [7]): 100
- Plant response rating, Galium (galium): 95
- Plant response rating, Sedge, Umbrella (sedge, umbrella): 90
- Plant response rating (0 to 100), Crabgrass, Large (large (Lg) crabgrass; 125 g ai/ha, postemergence): 30
- Plant response rating (0 to 100), Crabgrass, Large (large (Lg) crabgrass; 250 g ai/ha, postemergence): 85
- Plant response rating, Crabgrass, Large (large (Lg) crabgrass; [8]): 10
- Plant response rating, Crabgrass, Large (large (Lg) crabgrass; [9]): 20
- Plant response rating (0 to 100), Velvetleaf (velvetleaf; 125 g ai/ha): 75
- Plant response rating (0 to 100), Velvetleaf (velvetleaf; 250 g ai/ha): 75
- Plant response rating, Velvetleaf (velvetleaf; 31 g ai/ha, 13 to 15 days): 60
- Morningglory plant response rating (morningglory; [10]): 30
- Morningglory plant response rating (morningglory; [11]): 90
- Plant response rating, Wheat (wheat [1]; [10]): 70
- Plant response rating, Wheat (wheat [1]; [12]): 80
- Plant response rating, Pigweed (pigweed [2]; [10]): 100
- Plant response rating, Pigweed (pigweed [2]; [12]): 100
- Plant response rating (0 to 100), Johnsongrass (johnsongrass; 125 g ai/ha, postemergence): 10
- Plant response rating (0 to 100), Johnsongrass (johnsongrass; 250 g ai/ha, postemergence): 10
- Plant response rating, Johnsongrass (johnsongrass; [8]): 0
- Plant response rating, Johnsongrass (johnsongrass; [9]): 5
- Wheat plant response rating (wheat [3]; [10]): 20
- Wheat plant response rating (wheat [3]; [11]): 60
- Pigweed plant response rating (pigweed [4]; [10]): 100
- Pigweed plant response rating (pigweed [4]; [11]): 100
- Plant response rating (0 to 100), Foxtail, Giant (giant foxtail; 125 g ai/ha, postemergence): 15
- Plant response rating (0 to 100), Foxtail, Giant (giant foxtail; 250 g ai/ha, postemergence): 85
- Plant response rating, Foxtail, Giant (giant foxtail; [8]): 5
- Plant response rating, Foxtail, Giant (giant foxtail; [9]): 10
- Plant response rating (0 to 100), Nutsedge, Yellow (yellow nutsedge; 125 g ai/ha): 5
- Plant response rating (0 to 100), Nutsedge, Yellow (yellow nutsedge; 250 g ai/ha): 20
- Plant response rating, Nutsedge, Yellow (yellow nutsedge; 31 g ai/ha, 13 to 15 days): 5
- Plant response rating, Nutsedge, Yellow (yellow nutsedge; 62 g ai/ha): 5
- Ryegrass, Italian plant response rating (Italian ryegrass; [5]): 30
- Ryegrass, Italian plant response rating (Italian ryegrass; [6]): 80
- Ryegrass, Italian plant response rating (Italian ryegrass; [7]): 90
- Plant response rating, Ryegrass, Italian (Italian ryegrass): 0
- Plant response rating (0 to 100), Soybean (soybean; 125 g ai/ha): 90
- Plant response rating (0 to 100), Soybean (soybean; 250 g ai/ha): 90
- Plant response rating, Soybean (soybean; 31 g ai/ha, 13 to 15 days): 75
- Plant response rating, Soybean (soybean; 62 g ai/ha): 85

Compound: CCOc1cn(-c2c(Br)cccc2Oc2ncc(Cl)cn2)nn1 [Compound 84]
- Plant response rating (0 to 100), Oilseed Rape (oilseed rape; 125 g ai/ha, postemergence): 60
- Plant response rating, Oilseed Rape (oilseed rape; 31 g ai/ha, 13 to 15 days): 20
- Plant response rating, Oilseed Rape (oilseed rape; 62 g ai/ha): 45
- Galium plant response rating (galium; [13]): 80
- Galium plant response rating (galium; [5]): 100
- Galium plant response rating (galium; [6]): 100
- Plant response rating, Galium (galium): 90
- Plant response rating, Sedge, Umbrella (sedge, umbrella): 30
- Crabgrass, Large plant response rating (large (Lg) crabgrass; [14]): 5
- Plant response rating (0 to 100), Crabgrass, Large (large (Lg) crabgrass; 125 g ai/ha, postemergence): 30
- Plant response rating, Crabgrass, Large (large (Lg) crabgrass; [8]): 5
- Plant response rating, Crabgrass, Large (large (Lg) crabgrass; [9]): 5
- Plant response rating (0 to 100), Velvetleaf (velvetleaf; 125 g ai/ha): 90
- Plant response rating, Velvetleaf (velvetleaf; 31 g ai/ha, 13 to 15 days): 45
- Plant response rating, Velvetleaf (velvetleaf; 62 g ai/ha): 70
- Plant response rating, Wheat (wheat [1]; [10]): 30
- Plant response rating, Wheat (wheat [1]; [15]): 80
- Plant response rating, Pigweed (pigweed [2]; [10]): 100
- Plant response rating, Pigweed (pigweed [2]; [15]): 100
- Johnsongrass plant response rating (johnsongrass; [14]): 0
- Plant response rating (0 to 100), Johnsongrass (johnsongrass; 125 g ai/ha, postemergence): 0
- Plant response rating, Johnsongrass (johnsongrass; [8]): 0
- Plant response rating, Johnsongrass (johnsongrass; [9]): 0
- Plant response rating, Pigweed (pigweed [4]; [10]): 100
- Pigweed plant response rating (pigweed [4]; [11]): 100
- Foxtail, Giant plant response rating (giant foxtail; [14]): 40
- Plant response rating (0 to 100), Foxtail, Giant (giant foxtail; 125 g ai/ha, postemergence): 50
- Plant response rating, Foxtail, Giant (giant foxtail; [8]): 5
- Plant response rating, Foxtail, Giant (giant foxtail; [9]): 5
- Ryegrass, Italian plant response rating (Italian ryegrass; [13]): 0
- Ryegrass, Italian plant response rating (Italian ryegrass; [5]): 5
- Ryegrass, Italian plant response rating (Italian ryegrass; [6]): 5
- Plant response rating, Ryegrass, Italian (Italian ryegrass): 5
- Plant response rating (0 to 100), Soybean (soybean; 125 g ai/ha): 90
- Plant response rating, Soybean (soybean; 31 g ai/ha, 13 to 15 days): 55
- Plant response rating, Soybean (soybean; 62 g ai/ha): 90
